# From patent publication US8178104B2, “Methods and compositions for targeting gC1qR/p32” (Sanford-Burnham Medical Research Institute, priority 2006, dated 2012)
# Bridge positions count the residues as written; N and C are the ends. Ends that are not written are not given here. * marks the point of attachment. FITC = O=C1OC2(c3ccc(O)cc3Oc3cc(O)ccc32)c2ccc(NC(=S)*)cc21
# Assays:
# MDA-MB-435 cells = assay: FACS analysis of FITC-peptide binding to MDA-MB-435 cells; type: cell-based; settings: 10 μM, 1 hour at 4° C.; compared with Lyp-1
# Procedure: MDA-MB-435 cells were transiently transfected with gC1qR/p32-specific or control siRNAs. […] The amount of fluorescence in living cells was analyzed by FACS. Cells incubated in the absence of peptide served as FITC negative control. Compared to control siRNA transfected cells, down-regulation of gC1qR/p32 expression (in the presence of gC1qR/p32 siRNA) caused a shift in the peak of Lyp-1 fluorescence but not control peptide fluorescence.
# Cultured cells were detached with cell enzyme-free dissociation buffer (Gibco/Invitrogen) and collected in PBS containing 1% BSA (PBSB). Single cells suspensions from tumors were obtained as indicated above. For FACS staining, 2.5×10^5 cells were resuspended in 100 μl of PBSB and incubated with polyclonal anti-full-length gC1qR/p32 or rabbit IgG (20 μg/ml) in PBSB for 30 min at 4° C. The cells were washed in PBSB and stained with goat anti rabbit Alexa 488 (2.5 μg/ml) for 30 min at 4° C. For FACS analysis of bound FITC-peptides, cultured cells were detached as above and incubated with 10 μM of FITC-peptides in 10% FCS/DMEM for 1 hour at 4° C. After washes with PBSB, the cells were resuspended in PBS containing 2 μg/ml of propidium iodide (PI, Molecular Probes/Invitrogen) to distinguish between live and dead cells, and 10,000 cells per sample were analyzed using a BD Biosciences FACSort.
# BT549 = settings: cited from earlier work
# MDA-MB-435 = settings: cited from earlier work
# gC1qR/p32 = molecular target: T1, gC1qR/p32 (Homo sapiens, UniProt Q07021); assay: Pull-down assay with biotinylated peptides from tumor cell extracts; type: binding; settings: extracts of cultured tumor cells (MDA-MB-435); anti-gC1qR/p32 immunoblot
# T1 construct: the specific band represents the mature form of a protein known as gC1qR/p32; endogenous in cells; host or cells: MDA-MB-435 cultured cells; MDA-MB-435 tumor xenografts
# T1 sequence (Q07021 74-282): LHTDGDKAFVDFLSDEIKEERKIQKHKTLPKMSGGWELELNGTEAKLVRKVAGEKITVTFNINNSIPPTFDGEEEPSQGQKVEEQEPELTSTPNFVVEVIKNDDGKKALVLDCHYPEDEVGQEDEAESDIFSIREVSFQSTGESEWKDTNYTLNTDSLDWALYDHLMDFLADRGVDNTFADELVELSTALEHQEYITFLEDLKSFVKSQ
# Procedure: Pull down assays were performed with biotinylated Lyp-1 peptide (SEQ ID NO:1, CGNKRTRGC) from protein extracts derived from MDA-MB-435 cultured cells or MDA-MB-435 tumor xenografts. A tumor homing peptide, CREKA (SEQ ID NO:3), and a peptide CRV which resembles Lyp-1 in its amino acid composition and cyclic structure (SEQ ID NO:4, CRVRTRSGC), were used as negative controls. The Lyp-1 bound proteins were visualized using silver staining and immunoblotting. […] The arrow indicates a specific 33 kD band, which was identified as gC1qR/p32 by mass spectrometry. […] The antibody recognizes a band of 33 kD in the total proteins lysate and in the Lyp-1 pull down. Anti gC1qR/p32 reactive bands are not detected in the pull downs from both control peptides. […] The monoclonal antibody against gC1qR/p32 recognized a 75 kD and a 33 kD band only in the Lyp-1 peptide pull down.
# To identify the receptor for the LyP-1 peptide, biotin-labeled LyP-1 and control peptides were incubated with extracts of MDA-MB-435 cells, a cell line that binds and internalizes LyP-1 (Laakkonen et al., 2004). LyP-1 bound a specific band in the 30 kDa range that was not seen in the controls (FIG. 3A, left panel), which were the pentapeptide CREKA (SEQ ID NO: 3) (Simberg et al., 2007) and the nonapeptide CRVRTRSGC (SEQ ID NO: 4), which resembles LyP-1 in its amino acid composition and cyclic structure. […] LyP-1 affinity isolation also yielded gC1qR/p32 from cultured BT549 breast carcinoma cells and from extracts of MDA-MB-435 xenograft tumors.
# Streptavidin agarose beads (Sigma-Aldrich) were resuspended in 2 volumes of phosphate buffer saline (PBS) and conjugated to 3 μg/10 μl beads of biotynilated peptides for 2 h on ice. After incubation, beads were washed three times with PBS/50 mM n-octyl-β-D glucopyranoside (Calbiochem; San Diego, Calif.) to remove free peptides. […] Bands that appeared in the LyP-1 but not control peptide pull down were cut out, digested with trypsin, and the resulting peptides were analyzed by matrix-assisted laser desorption ionization-time of flight (MALDI-TOF) mass spectrometry. […]
# C8161 melanoma cells = settings: cited from earlier work
# tumors = settings: cited from earlier work
# HL-60 leukemia cells = settings: cited from earlier work
# [1] = molecular target: T2, purified gC1qR/p32 protein (Homo sapiens, UniProt Q07021); assay: In vitro phage binding to purified gC1qR/p32 coated on microtiter wells; settings: 5 μg/ml coated protein, 16 h at 37° C., plaque assay
# T2 sequence (Q07021 74-282): T1 sequence (Q07021 74-282)
# Procedure: Purified gC1qR/p32 or BSA, as a control, were coated onto microtiter wells (5 μg/ml) and targeted for binding with 10^8 pfu of insertless phage, Lyp-1 phage, or control phage carrying another tumor homing peptide (CREKA, SEQ ID NO:3). After 16 hours of incubation at 37° C., bound phages were eluted and quantified by plaque assay. The results are show in FIG. 2(a). Results are expressed as fold of Lyp-1 and CREKA (SEQ ID NO:3) phages recovered over insertless phage and are representative of five independent experiments.
# Microtiter wells (Costar, Corning, N.Y.) were coated overnight at 4° C. with 5 μg/ml of either purified gC1qR/p32 or BSA (Sigma-Aldrich) in 100 μl/well of carbonate buffer (15 mM sodium carbonate, 35 mM sodium bicarbonate). Wells were washed three times with TBS and blocked with Pierce Superblock buffer according to the manufactures instructions. 10^8 pfu of LyP-1 and control phages were added to the wells in 100 μl/well of TBS/0.05% tween-20 and incubated for 16 h at 37° C. After 6 washes in TBS/0.05% tween-20, bound phages were eluted with 200 μl of Tris-HCl 1M pH 7.5/0.5% SDS for 30 min and subsequently quantified by plaque assay. […] Cells were washed 5 times with PBS/1% BSA and bound phages were quantified by plaque assay.
# mitochondrial membranes = settings: 10 μM; cited from earlier work
# MDA-MB-435 tumors = assay: Tumor localization of intravenously injected FITC-LyP-1 peptide; type: in vivo, mice; settings: circulation 1 hour; p32 immunohistochemical staining
# From the text: Tumor localization of gC1qR/p32 and Lyp-1 peptide were visualized. gC1qR/p32, lymphatic or blood vessels, podoplanin and Meca32/CD31 were stained with fluorescently-labeled antibodies in MDA-MB-435 tumor xenografts. Polyclonal anti-gC1qR/p32 antibody recognizes cell clusters that lack blood vessels but contain lymphatics, or cells lining vessel-like structures positive for Podoplanin but not CD31 or Meca32. Fluorescein-conjugated Lyp-1 peptide was i.v. injected into mice bearing MDA-MB-435 tumors and allowed to circulate for 1 hour before removal of the tumor for gC1qR/p32 immunohistochemical analysis. Lyp-1 peptide localizes in gC1qR/p32-positive patches within the tumor.
substance,measurement,setting,value
ARALPSQRSR [control peptide with same overall charge as LyP-1],binding of FITC conjugated peptide to cells,MDA-MB-435 cells,less binding ability
"CGNKRTRGC (disulfide 1-9 (inferred)) [LyP-1, tumor homing cyclic nonapeptide]",LyP-1 binding,BT549,strong
same,LyP-1 binding,MDA-MB-435,strong
same,gC1qR/p32 bound/pulled down by biotinylated peptide,gC1qR/p32,specifically bound
same,LyP-1 binding,C8161 melanoma cells,not to significantly bind
same,TUNEL-positive lesions in tumors,tumors; in vivo peptide treatment,induced TUNEL-positive lesions
same,tumor growth,tumors; systemic administration,inhibits tumor growth
same,LyP-1 binding,HL-60 leukemia cells,not to significantly bind
CNRRTKAGC (displayed on phage) [LyP-2],phage binding to purified gC1qR/p32 relative to insertless control phage,[1],did not significantly bind
"CREKA [tumor homing pentapeptide used as negative control, as peptide and on phage]",gC1qR/p32 bound/pulled down by biotinylated peptide,gC1qR/p32,not detected
same,phage binding to purified gC1qR/p32 relative to insertless control phage,[1],essentially no interaction
CRVRTRSGC (disulfide 1-9 (inferred)) [control nonapeptide resembling Lyp-1 in amino acid composition and cyclic structure],gC1qR/p32 bound/pulled down by biotinylated peptide,gC1qR/p32,not detected
D(KLAKLAK)2,mitochondrial swelling,mitochondrial membranes,marked mitochondrial swelling
FITC-LyP-1: fluorescein-conjugated LyP-1 peptide ({FITC}-CGNKRTRGC; disulfide 1-9 (inferred)),tumor localization of intravenously injected peptide,MDA-MB-435 tumors,accumulated in tumor areas with high expression levels of gC1qR/p32
